# Like-named read-outs stand apart in the source and are kept apart here. [invdT] = inverted (3'-3') thymidine; {TYE665} = TYE665 fluorescent dye
# Tests used:
# [1] = 40 nmol/Kg i.v.
# Experimental: NOD/SCID mice received a single i.v. injection of 40 nmol/Kg of transferrin/EpCAM aptamer with four various structures (TEPP: Bi3 transferrin^+/EpCAM^+; TEPN: transferrin^+/EpCAM^−; TENP: transferrin^−/EpCAM^+; TENN: Bi1 transferrin^−/EpCAM^−). The concentration of aptamers, expressed as % of injected dose (ID) per mg of tissue, in tissues indicated was determined at 30 min and 60 min after the agent administration using ELISA. Data are means±SEM (n=3).
# To evaluate the advantage of positive transferrin-modified aptamers over their negative transferrin-modified counterparts in brain uptake, the biodistribution of aptamers with four various structures (transferrin+/EpCAM+, transferrin+/EpCAM−, transferrin−/EpCAM+, transferrin−/EpCAM−) were studied at 30 min and 60 min after a single i.v. injection of these agents at a dosage of 40 nmol/Kg into NOD/SCID mice.
# [2] = mouse, in vivo
# [3] = system: HEY cells; assay: Confocal microscopy internalisation into HEY cells; assay type: cell-based, human
# Experimental: Confocal microscopy was used as a means of visualising aptamer internalisation into the cells. Both aptamers and cells were prepared in the same manner as described above before they were mixed and allowed to incubate at 37° C. The aptamers were used at a concentration of 200 nM and were allowed to incubate for 60 minutes. The concentration for the conjugate (bifunctional) aptamers was 400 nM and these were incubated with the cells for 120 minutes. Ten minutes prior to end of incubation, 2 μL of Hoechst nuclear stain (10 mg/mL) was added to cells. Cells were then washed three times with 100 μL of PBS as described above and resuspended in 20 μL (8×10^5 cells/well) in an 8-chambered slide (Lab-Tek II, Nunc) for visualisation. Cells were incubated in blocking buffer for 60 mins followed by resuspension in binding buffer containing the aptamer and incubated for 60 mins at 37° C. Bisbenzimide Hoechst 33342 (3 mg/ml) (Sigma) was added to the cells during the final 10 min of incubation. The aptamer solution was removed and the cells were washed three times for 5 min each in PBS prior to visualisation using a FluoView FV10i laser scanning confocal microscope (Olympus).
# As with the anti-TfR single aptamers, it was necessary to ensure that the binding that had been observed could be attributed to cellular internalisation rather than surface attachment. This was done in a similar manner as before. […]
substance,measurement,setting,value
"5′-GCGCGGTACCGCGCTAACGGAGGTTGCGTCCGT-3′ (GCGCGGTACCGCGCTAACGGAGGTTGCGTCCGN; listed as DNA, chemistry not given here) [Bi3]","Accumulation in brain, fold higher than transferrin−/EpCAM+",[1]; 30 min,3.1 fold
same,"Accumulation in brain, fold higher than transferrin−/EpCAM−",[1]; 30 min,12.2 fold
same,"Accumulation in brain, fold higher than transferrin−/EpCAM+",[1]; 60 min,2.5 fold
same,"Accumulation in brain, fold higher than transferrin−/EpCAM−",[1]; 60 min,10.8 fold
"Bi1: aptamer conjugate based on TfR1 and scrambled EpCAM binding loop, negative control, SEQ ID NO:8 (GCGCGTGCACGCGCTAACGGATTCCTTTTCCGN; listed as DNA, further chemistry not given here)",Fluorescent signal in dissected brain,[2],no signal
same,Internalisation into EpCAM-positive HEY cell line,"[3]; conjugate aptamers, 400 nM, two hour",observed to internalise
"TfR3: version of TfR1 with scrambled binding loop sequence, SEQ ID NO:6 (DNA GCGTGGTACCACGC; DNA, 5' {TYE665}, 3' [invdT], backbone not given here)",Internalisation of anti-TfR aptamer into HEY cells,[3],not detected

# Reference: patent publication US10577610B2, “EpCAM aptamers and conjugates thereof” (Deakin University, priority 2015, dated 2020)
